# Legend:
# [1] = cells; conditions: Homo sapiens, SPCA1, 72 h
# Description: Anticancer activity against human SPCA1 cells assessed as reduction in cell viability incubated for 72 hrs by MTT assay
# [2] = system: CNE-2; assay: Anticancer activity against human CNE-2 cells assessed as reduction in cell viability incubated for 72 hrs by MTT assay; assay type: functional, cell-based; conditions: CNE-2, 72 h
# [3] = system: HeLa; assay: cells; conditions: Homo sapiens, 72 h
# Description: Anticancer activity against human HeLa cells assessed as reduction in cell viability incubated for 72 hrs by MTT assay
# [4] = system: HepG2; assay: cells; conditions: Homo sapiens, HepG2, 72 h
# Description: Anticancer activity against human HepG2 cells assessed as reduction in cell viability incubated for 72 hrs by MTT assay
# [5] = system: HCT-116; assay: cells; conditions: Homo sapiens, HCT-116, 72 h
# Description: Anticancer activity against human HCT-116 cells assessed as reduction in cell viability incubated for 72 hrs by MTT assay
# [6] = Antiproliferative activity against human GBM-0627-GFD cells assessed as reduction in cell viability by MTT assay; assay type: functional, cell-based
# [7] = system: MDA-MB-231; assay: cells; assay type: functional, cell-based; conditions: Homo sapiens, MDA-MB-231, 48 h
# Description: Anticancer activity against human MDA-MB-231 cells assessed as reduction in cell growth incubated for 48 hrs by MTT assay
# [8] = target: Acetylcholinesterase (Electrophorus electricus, UniProt O42275); assay: Inhibition of electric eel AchE using acetylthiocholine as substrate incubated for 30 mins by Ellman's method
# [9] = target: Cholinesterase (Equus caballus, UniProt P81908); assay: Inhibition of equine serum BuChE using butyrylthiocholine iodide as substrate measured for 30 mins by ELLman's method
# [10] = system: Staphylococcus aureus; assay: microbe, parasite or virus in culture; conditions: Staphylococcus aureus, 171, 24 h
# Description: Antimicrobial activity against methicillin-resistant Staphylococcus aureus 171 clinical isolate assessed as bacterial growth inhibition incubated for 24 hrs by CLSI based broth microdilution method
# [11] = system: Escherichia coli; assay: microbe, parasite or virus in culture
# Description: Antibacterial activity against Escherichia coli assessed as inhibition of bacterial growth by broth microdilution method
# [12] = system: Acinetobacter baumannii; assay: microbe, parasite or virus in culture; conditions: ATCC 19606
# Description: Antibacterial activity against Acinetobacter baumannii ATCC 19606 assessed as inhibition of bacterial growth by broth microdilution method
# [13] = system: Pseudomonas aeruginosa; assay: microbe, parasite or virus in culture; conditions: Pseudomonas aeruginosa, 126, 24 h
# Description: Antibacterial activity against multidrug-resistant Pseudomonas aeruginosa 126 clinical isolate assessed as reduction in bacterial growth incubated for 24 hrs by CLSI based broth microdilution method
# [14] = system: SK-OV-3; assay: cells; assay type: functional, cell-based; conditions: Homo sapiens, SK-OV-3, 48 h
# Description: Anticancer activity against human SK-OV-3 cells assessed as reduction in cell growth incubated for 48 hrs by MTT assay
# [15] = system: CNE; assay: cells; assay type: functional, cell-based; conditions: Homo sapiens, 48 h
# Description: Anticancer activity against human CNE cells assessed as reduction in cell growth incubated for 48 hrs by MTT assay
# [16] = system: HeLa; assay: Antiproliferative activity against human HeLa cells assessed as reduction in cell viability incubated for 48 hrs by CCK-8 assay; assay type: functional, cell-based
# [17] = system: HepG2; assay: cells; conditions: Homo sapiens, HepG2, 48 h
# [18] = system: MCF7; assay: Antiproliferative activity against human MCF7 cells assessed as reduction in cell viability incubated for 48 hrs by CCK-8 assay; assay type: functional, cell-based; conditions: MCF7, 48 h
# [19] = system: KB; assay: Antiproliferative activity against human KB cells assessed as reduction in cell viability incubated for 48 hrs by CCK-8 assay; assay type: functional, cell-based
# [20] = system: HEK-293T; assay: Antiproliferative activity against HEK293T cells assessed as reduction in cell viability incubated for 48 hrs by CCK-8 assay; assay type: functional, cell-based; conditions: Homo sapiens
# Sequence of Acetylcholinesterase (O42275 whole entry): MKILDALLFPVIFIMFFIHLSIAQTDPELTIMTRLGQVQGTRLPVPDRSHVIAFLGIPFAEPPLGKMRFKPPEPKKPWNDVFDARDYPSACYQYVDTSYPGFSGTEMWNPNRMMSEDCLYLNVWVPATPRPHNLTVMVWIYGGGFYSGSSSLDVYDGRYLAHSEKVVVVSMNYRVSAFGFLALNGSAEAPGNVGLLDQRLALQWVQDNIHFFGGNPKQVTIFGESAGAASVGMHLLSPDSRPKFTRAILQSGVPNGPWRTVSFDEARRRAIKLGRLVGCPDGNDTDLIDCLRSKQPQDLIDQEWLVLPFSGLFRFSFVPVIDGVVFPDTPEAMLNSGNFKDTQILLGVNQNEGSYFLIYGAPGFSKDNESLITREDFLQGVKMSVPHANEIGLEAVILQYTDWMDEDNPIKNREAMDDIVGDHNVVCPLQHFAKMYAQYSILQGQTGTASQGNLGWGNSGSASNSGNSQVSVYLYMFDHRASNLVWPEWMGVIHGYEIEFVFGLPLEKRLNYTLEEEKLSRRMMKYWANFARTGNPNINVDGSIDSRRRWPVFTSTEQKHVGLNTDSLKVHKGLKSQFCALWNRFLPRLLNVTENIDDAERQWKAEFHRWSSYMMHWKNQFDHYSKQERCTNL
# Sequence of Cholinesterase (P81908 whole entry): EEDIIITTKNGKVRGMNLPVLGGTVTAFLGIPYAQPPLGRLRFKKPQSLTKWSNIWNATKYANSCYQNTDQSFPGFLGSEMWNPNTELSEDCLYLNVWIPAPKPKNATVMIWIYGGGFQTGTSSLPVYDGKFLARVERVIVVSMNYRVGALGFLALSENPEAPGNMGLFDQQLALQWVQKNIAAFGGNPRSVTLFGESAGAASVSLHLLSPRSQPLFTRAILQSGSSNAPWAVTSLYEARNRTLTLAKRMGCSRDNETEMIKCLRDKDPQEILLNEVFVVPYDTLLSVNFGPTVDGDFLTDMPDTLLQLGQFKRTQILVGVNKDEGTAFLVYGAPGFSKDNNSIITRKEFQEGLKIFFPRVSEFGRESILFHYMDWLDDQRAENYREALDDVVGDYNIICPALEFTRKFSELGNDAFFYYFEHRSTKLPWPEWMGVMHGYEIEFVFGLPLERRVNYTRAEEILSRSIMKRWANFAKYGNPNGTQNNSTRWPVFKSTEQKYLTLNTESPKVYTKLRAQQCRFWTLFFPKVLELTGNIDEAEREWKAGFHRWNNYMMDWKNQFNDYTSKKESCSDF
smiles,measurement,setting,value
CCOP(=O)(OCC)C(NC(=O)c1cc(O)c2c(c1)C(=O)c1cccc(O)c1C2=O)c1cccc(Cl)c1 (configuration not stated),IC50,[1],28.3 µM
same,IC50,[2],68 µM
same,IC50,[3],35.2 µM
same,IC50,[4],39.2 µM
same,IC50,[5],48.2 µM
CCOP(=O)(OCC)C(NC(=O)c1cc(O)c2c(c1)C(=O)c1cccc(O)c1C2=O)c1cccc(OC)c1 (configuration not stated),IC50,[1],28.3 µM
same,IC50,[2],24.1 µM
CCOP(=O)(OCC)C(NC(=O)c1cc(O)c2c(c1)C(=O)c1cccc(O)c1C2=O)c1ccccc1OC (configuration not stated),IC50,[1],15 µM
same,IC50,[2],28.6 µM
CCOP(=O)(OCC)C(NC(=O)c1cc(O)c2c(c1)C(=O)c1cccc(O)c1C2=O)c1ccccc1 (configuration not stated),IC50,[1],27.4 µM
same,IC50,[2],34.3 µM
CCOP(=O)(OCC)C(NC(=O)c1cc(O)c2c(c1)C(=O)c1cccc(O)c1C2=O)c1ccc(OC)cc1 (configuration not stated),IC50,[1],38.9 µM
same,IC50,[2],42.9 µM
CCOP(=O)(OCC)C(C)(NC(=O)c1cc(O)c2c(c1)C(=O)c1cccc(O)c1C2=O)c1ccc(C)cc1 (configuration not stated),IC50,[1],16.9 µM
same,IC50,[2],33.8 µM
same,IC50,[3],> 50 µM
same,IC50,[5],30.6 µM
CCOP(=O)(OCC)C(C)(NC(=O)c1cc(O)c2c(c1)C(=O)c1cccc(O)c1C2=O)c1ccccc1 (configuration not stated),IC50,[1],25.1 µM
same,IC50,[2],38.3 µM
same,IC50,[3],> 50 µM
same,IC50,[5],23.4 µM
CCOP(=O)(OCC)C(C)(CCc1ccccc1)NC(=O)c1cc(O)c2c(c1)C(=O)c1cccc(O)c1C2=O (configuration not stated),IC50,[1],9.01 µM
same,IC50,[2],27.3 µM
same,IC50,[3],45.4 µM
same,IC50,[5],12.7 µM
O=C(CCCCCNC(=O)c1cc(O)c2c(c1)C(=O)c1cccc(O)c1C2=O)NO,IC50,[6],5.5 µM
Cc1ccc(Nc2ncnc3ccc(NC(=O)c4cc(OCc5ccccc5)c5c(c4)C(=O)c4cccc(OCc6ccccc6)c4C5=O)cc23)cc1,IC50,[7],3.1 µM
O=C(NCCCCCCCCNc1c2c(nc3ccccc13)CCCC2)c1cc(O)c2c(c1)C(=O)c1cccc(O)c1C2=O,IC50,[8],0.148 µM
same,IC50,[9],0.36 µM
COc1ccc(C[n+]2ccc(CCCOC(=O)c3cc(O)c4c(c3)C(=O)c3cccc(O)c3C4=O)cc2)cc1.[Br-],MIC,[10],16 µg/mL
same,MIC,[11],> 128 µg/mL
same,MIC,[12],128 µg/mL
same,MIC,[13],32 µg/mL
O=C(NCCCCCCNc1c2c(nc3cc(Cl)ccc13)CCCC2)c1cc(O)c2c(c1)C(=O)c1cccc(O)c1C2=O,IC50,[8],0.022 µM
same,IC50,[9],0.773 µM
Cc1ccc(C[n+]2ccc(CCCOC(=O)c3cc(O)c4c(c3)C(=O)c3cccc(O)c3C4=O)cc2)cc1.[Br-],MIC,[10],8 µg/mL
same,MIC,[11],64 µg/mL
same,MIC,[12],> 128 µg/mL
same,MIC,[13],16 µg/mL
COc1ccc(Nc2ncnc3ccc(NC(=O)c4cc(OCc5ccccc5)c5c(c4)C(=O)c4cccc(OCc6ccccc6)c4C5=O)cc23)cc1,IC50,[14],> 100 µM
same,IC50,[7],42.4 µM
same,IC50,[15],24.8 µM
N#Cc1ccc(C[n+]2ccc(CCCNC(=O)c3cc(O)c4c(c3)C(=O)c3cccc(O)c3C4=O)cc2)cc1.[Br-],MIC,[10],16 µg/mL
same,MIC,[11],64 µg/mL
same,MIC,[12],> 128 µg/mL
same,MIC,[13],32 µg/mL
COc1cccc(Nc2ncnc3ccc(NC(=O)c4cc(OCc5ccccc5)c5c(c4)C(=O)c4cccc(OCc6ccccc6)c4C5=O)cc23)c1,IC50,[14],68.6 µM
same,IC50,[7],74.1 µM
same,IC50,[15],56.4 µM
CCCCOc1cccc2c1C(=O)c1c(OCCCC)cc(C(=O)N[C@H](C(=O)O)C(C)C)cc1C2=O,IC50,[16],67.8 µM
same,IC50,[17],54.4 µM
same,IC50,[18],> 100 µM
same,IC50,[19],28.6 µM
same,IC50,[20],43.1 µM
N[C@@H](CCCCNC(=O)c1cc(O)c2c(c1)C(=O)c1cccc(O)c1C2=O)C(=O)O,IC50,[6],> 80 µM
O=C(NCCCCCCNc1c2c(nc3ccccc13)CCC2)c1cc(O)c2c(c1)C(=O)c1cccc(O)c1C2=O,IC50,[8],0.543 µM
same,IC50,[9],0.219 µM
CC(C)c1ccc(COc2cccc3c2C(=O)c2c(OCc4ccc(C(C)C)cc4)cc(C(=O)N[C@H](C(=O)O)C(C)C)cc2C3=O)cc1,IC50,[16],37.5 µM
same,IC50,[17],5.8 µM
same,IC50,[18],13.9 µM
same,IC50,[19],9.4 µM
same,IC50,[20],1.9 µM
O=C(Nc1ccc2ncnc(Nc3ccc(F)cc3)c2c1)c1cc(OCc2ccccc2)c2c(c1)C(=O)c1cccc(OCc3ccccc3)c1C2=O,IC50,[14],20.5 µM
same,IC50,[7],3 µM
same,IC50,[15],12.4 µM
CC(C)[C@H](NC(=O)c1cc(OCc2ccccc2)c2c(c1)C(=O)c1cccc(OCc3ccccc3)c1C2=O)C(=O)O,IC50,[16],44.9 µM
same,IC50,[17],36.1 µM
same,IC50,[18],36.5 µM
same,IC50,[19],15.6 µM
same,IC50,[20],21.5 µM
O=C(NCCCCNc1c2c(nc3ccccc13)CCCC2)c1cc(O)c2c(c1)C(=O)c1cccc(O)c1C2=O,IC50,[8],0.0587 µM
same,IC50,[9],0.286 µM
Cc1cccc(Nc2ncnc3ccc(NC(=O)c4cc(OCc5ccccc5)c5c(c4)C(=O)c4cccc(OCc6ccccc6)c4C5=O)cc23)c1,IC50,[14],> 100 µM
same,IC50,[7],49.9 µM
same,IC50,[15],5.9 µM
CC(C)[C@H](NC(=O)c1cc(OCc2cccc(F)c2)c2c(c1)C(=O)c1cccc(OCc3cccc(F)c3)c1C2=O)C(=O)O,IC50,[16],35.4 µM
same,IC50,[17],29.6 µM
same,IC50,[18],38.6 µM
same,IC50,[19],17.8 µM
same,IC50,[20],12.9 µM
CC(C)[C@H](NC(=O)c1cc(OCCCc2ccccc2)c2c(c1)C(=O)c1cccc(OCCCc3ccccc3)c1C2=O)C(=O)O,IC50,[16],9.4 µM
same,IC50,[17],3.6 µM
same,IC50,[18],4.5 µM
same,IC50,[19],4.9 µM
same,IC50,[20],1.6 µM
CO/N=C(\C(=O)N[C@@H]1C(=O)N2C(C(=O)O)=C(COC(N)=O)CS[C@H]12)c1ccco1 [CEFUROXIME],MIC,[10],1020 µg/mL
same,MIC,[11],64 µg/mL
same,MIC,[12],1020 µg/mL
same,MIC,[13],1020 µg/mL
O=c1[nH]cc(F)c(=O)[nH]1 [FLUOROURACIL],IC50,[1],42.2 µM
same,IC50,[2],40.2 µM
same,IC50,[4],30 µM

# Reference: ChEMBL document CHEMBL6092146 (Bioorg Med Chem, 2024)
